The values that follow come from patent publication US20100056535A1, “Inhibitors of HIV-1 reverse transcriptase” (Roche Palo Alto LLC, priority 2008, published 2010).

Assay [1] deals with HXB2-strain of HIV-1 in MT4 cells. Put plainly: Antiviral assay: protection of HIV-1-infected MT4 cells from cell death (MTT). It counts as cell-based. Here is the method:
Anti-HIV-1 antiviral activity was assessed using an adaptation of the method of Pauwels et al. (Pauwels et al., J Virol Methods 1988 20:309-321). The method is based on the ability of compounds to protect HIV-1-infected T lymphoblastoid cells (MT4 cells) from cell-death mediated by the infection. The endpoint of the assay was calculated as the concentration of compound at which the cell viability of the culture was preserved by 50% (‘50% inhibitory concentration’, IC50). The cell viability of a culture was determined by the uptake of soluble, yellow 3-[4,5-dimethylthiazol-2-yl]-2,5-diphenyltetrazolium bromide (MTT) and its reduction to a purple insoluble formazan salt. After solubilization, spectrophotometric methods were employed to measure the amount of formazan product.
MT4 cells were prepared to be in logarithmic-phase growth and a total of 2×10^6 cells infected with the HXB2-strain of HIV-1 at a multiplicity of 0.0001 infectious units of virus per cell in a total volume of between 200-500 microliters. The cells were incubated with virus for one hour at 37° C. before removal of virus. The cells are then washed in 0.01 M phosphate buffered saline, pH 7.2 before being resuspensed in culture medium for incubation in culture with serial dilutions of test compound. The culture medium used was RPMI 1640 without phenol red, supplemented with penicillin, streptomycin, L-glutamine and 10% fetal calf serum (GM10).
Test compounds were prepared as 2 mM solutions in dimethyl sulfoxide (DMSO). Four replicate, serial 2-fold dilutions in GM10 were then prepared and 50 microliters amounts placed in 96-well plates over a final nanomolar concentration range of 625-1.22. Fifty microliters GM10 and 3.5×10^4 infected cells were then added to each well. Control cultures containing no cells (blank), uninfected cells (100% viability; 4 replicates) and infected cells without compound (total virus-mediated cell death; 4 replicates) were also prepared. The cultures were then incubated at 37° C. in a humidified atmosphere of 5% CO2 in air for 5 days.
A fresh solution of 5 mg/mL MTT was prepared in 0.01 M phosphate buffered saline, pH 7.2 and 20 microliters added to each culture. The cultures were further incubated as before for 2 hours. They were then mixed by pipetting up and down and 170 microliters of Triton X-100 in acidified isopropanol (10% v/v Triton X-100 in 1:250 mixture of concentrated HCl in isopropanol). When the formazan deposit was fully solubilized by further mixing, the absorbance (OD) of the cultures was measured at 540 nm and 690 nm wavelength (690 nm readings were used as blanks for artifacts between wells). The percent protection for each treated culture was then calculated from the equation: […]
The IC50 can be obtained from graph plots of percent protection versus log10 drug concentration.

The target in the next assay is HIV-1 RT (Human immunodeficiency virus type 1 group M subtype B, UniProt P03366). Put plainly: Heteropolymer HIV Reverse Transcriptase Assay: Inhibitor IC50 Determination. It counts as biochemical. As to the method: Heteropolymer HIV Reverse Transcriptase Assay: Inhibitor IC50 Determination
HIV-1 RT assay was carried out in 96-well Millipore MultiScreen MADVNOB50 plates using purified recombinant enzyme and a poly(rA)/oligo(dT)16 template-primer in a total volume of 50 μL. The assay constituents were 50 mM Tris/HCl, 50 mM NaCl, 1 mM EDTA, 6 mM MgCl2, 5 μM dTTP, 0.15 μCi [^3H] dTTP, 5 μg/ml poly (rA) pre annealed to 2.5 μg/ml oligo (dT)16 and a range of inhibitor concentrations in a final concentration of 10% DMSO. Reactions were initiated by adding 4 nM HIV-1 RT and after incubation at 37° C. for 30 min, they were stopped by the addition of 50 μl ice cold 20% TCA and allowed to precipitate at 4° C. for 30 min. The precipitates were collected by applying vacuum to the plate and sequentially washing with 3×200 μl of 10% TCA and 2×200 μl 70% ethanol. Finally, the plates were dried and radioactivity counted in a Packard TopCounter after the addition of 25 μl scintillation fluid per well. IC50's were calculated by plotting % inhibition versus log10 inhibitor concentrations. Representative IC50 data is depicted in TABLE 2.

The mark [2] stands for this setting: Human immunodeficiency virus 1, HXB2, wild type virus, MT4 cells, 10% fetal calf serum, read-out: IC50 Antiviral wt:fbs:10%.
The mark [3] stands for this setting: Human immunodeficiency virus 1, HXB2, MT4, read-out: IC50 Antiviral wt:fbs:10%.
The mark [4] stands for this setting: purified recombinant enzyme, poly(rA)/oligo(dT)16 template-primer, read-out: Polymerase Inhibition IC50.

Read-outs that look alike come from different tables or passages of the source.

The IC50 is the concentration at which inhibition is half-maximal.

For the molecule `N#Cc1cc(Cl)cc(Oc2c(CSCc3ccccc3)c[nH]c(=O)c2Br)c1` [II-18, 3-(5-Benzylsulfanylmethyl-3-bromo-2-oxo-1,2-dihydro-pyridin-4-yloxy)-5-chloro-benzonitrile], the figures for the IC50 (in assay [1] (setting [2]); at HIV-1 RT) were 4.2 nM and 0.4 nM, respectively.
`N#Cc1cc(Cl)cc(Oc2cc(CCc3nc4ccccc4o3)[nH]c(=O)c2Cl)c1` [Compound I-19, 3-[6-(2-Benzooxazol-2-yl-ethyl)-3-chloro-2-oxo-1,2-dihydro-pyridin-4-yloxy]-5-chloro-benzonitrile]: the IC50 is 6.9 nM in assay [1] (setting [3]) and 6.3 nM on HIV-1 RT (setting [4]).
On to `CCc1c(C)[nH]c(=O)c(Br)c1Oc1cc(Cl)cc(C#N)c1` [II-6, 3-(3-Bromo-5-ethyl-6-methyl-2-oxo-1,2-dihydro-pyridin-4-yloxy)-5-chloro-benzonitrile], for which the half-maximal inhibitory concentration (IC50) in assay [1] (setting [2]) came out at 2.4 nM; at HIV-1 RT (setting [4]) it was 7.3 nM.
`N#Cc1cc(Cl)cc(Oc2c(F)c(CCc3ccncc3)[nH]c(=O)c2Br)c1` [Compound I-20, 3-[3-Bromo-5-fluoro-2-oxo-6-(2-pyridin-4-yl-ethyl)-1,2-dihydro-pyridin-4-yloxy]-5-chloro-benzonitrile]: the results for the IC50 (in assay [1] (setting [3]); on HIV-1 RT (setting [4])) were 4.4 nM and 1.5 nM, respectively.
Consider `C=Cc1c(Oc2cc(Cl)cc(C#N)c2)c(CC)c[nH]c1=O` [II-3, 3-Chloro-5-(5-ethyl-2-oxo-3-vinyl-1,2-dihydro-pyridin-4-yloxy)-benzonitrile], for which the half-maximal inhibitory concentration (IC50) in assay [1] (setting [2]) stood at 3.3 nM; on HIV-1 RT (setting [4]), 5.6 nM.
